From paper PMC10584170, “Machine learning-based phenotypic imaging to characterise the targetable biology of Plasmodium falciparum male gametocytes for the development of transmission-blocking antimalarials” (PLOS Pathogens, 2023)
Read-outs that look alike come from different tables or passages of the source. Blank lines part the entries; values can stand above or below the molecule they belong to.

Columns and labels:
HepG2 cells = assay: HepG2 cytotoxicity counter-screen; settings: cytotoxic activity against HepG2 cells
[1] = test system: P. falciparum male gametocytes; assay: P. falciparum Dual Gamete Formation Assay (PfDGFA), male readout (exflagellation); assay type: cell-based, Plasmodium falciparum NF54; settings: for Average inhibition male (%) / % inhibition male (individual replicates) R1 / % inhibition male (individual replicates) R3 / % inhibition male (individual replicates) R4 / inhibition at 2 µM: 2µM, 24h preincubation with gametocytes; for Selectivity Ratio M: HepG2 Tox50 versus male IC50; for IC50: PfDGFA, 24 h incubation with gametocytes before induction, exflagellation readout, read-out: Male IC50
Method in brief: (§1)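 Mature NF54 gametocytes (day 14) were incubated with compound for 24 h at 37°C under 1% O2/3% CO2, then triggered with xanthurenic acid ookinete medium plus Cy3-anti-Pfs25. Exflagellation was imaged by brightfield; after a further 24 h at 28°C, Pfs25-positive female gametes were imaged by fluorescence and counted by automated image analysis.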

[2] = test system: P. falciparum female gametocytes; assay: P. falciparum Dual Gamete Formation Assay (PfDGFA), female readout (Pfs25-positive female gametes); assay type: cell-based, Plasmodium falciparum NF54; settings: for Average inhibition female (%) / % inhibition female (individual replicates) R1 / % inhibition female (individual replicates) R3 / % inhibition female (individual replicates) R4 / inhibition at 2 µM: 2µM, 24h preincubation with gametocytes; for Selectivity ratio F: HepG2 Tox50 versus female IC50; for IC50: PfDGFA, 24 h incubation with gametocytes before induction, female gamete readout, read-out: Female IC50
Method in brief: as §1

[3] = Plasmodium falciparum, average of replicates, read-out: Average inhibition male (%)
[4] = Plasmodium falciparum, replicate R1, read-out: % inhibition male (individual replicates) R1
[5] = Plasmodium falciparum, replicate R2, read-out: % inhibition male (individual replicates) R2
[6] = Plasmodium falciparum, replicate R4, read-out: % inhibition male (individual replicates) R4
[7] = Plasmodium falciparum, average of replicates, read-out: Average inhibition female (%)
[8] = Plasmodium falciparum, replicate R1, read-out: % inhibition female (individual replicates) R1
[9] = Plasmodium falciparum, replicate R2, read-out: % inhibition female (individual replicates) R2
[10] = Plasmodium falciparum, replicate R3, read-out: % inhibition female (individual replicates) R3
[11] = Plasmodium falciparum, replicate R4, read-out: % inhibition female (individual replicates) R4

Structure (SMILES): Cc1c(Cn2nc(Cl)c(N3CCNCC3)cc2=O)cccc1NC(=O)Nc1ccc(-c2ccccc2)cc1.O=C(O)C(F)(F)F [TCMDC-141699]
- Tox50 (HepG2 cells): 1.2 µM
- Average inhibition male (%) ([1]; average of replicates): 91.5%
- % inhibition male (individual replicates) R1 ([1]; replicate R1): 87.4%
- % inhibition male (individual replicates) R3 ([1]; replicate R3): 92.1%
- % inhibition male (individual replicates) R4 ([1]; replicate R4): 92.9%
- Selectivity Ratio M [1]: 2.05
- IC50 [1]: 580 nM
- Average inhibition female (%) ([2]; average of replicates): 53.7%
- % inhibition female (individual replicates) R1 ([2]; replicate R1): 31.7%
- % inhibition female (individual replicates) R3 ([2]; replicate R3): 37.6%
- % inhibition female (individual replicates) R4 ([2]; replicate R4): 62.1%
- Selectivity ratio F [2]: 2.15
- IC50 [2]: 560 nM

Structure (SMILES): Cc1ccc(C)c(S(=O)(=O)NCC2CCN(Cc3ccc(O)cc3)CC2)c1.O=C(O)C(F)(F)F [TCMDC-141802]
- Tox50 (HepG2 cells): 81.55 µM
- Selectivity Ratio M [1]: 54.73
- inhibition at 2 µM [1, 3]: 95.1%
- inhibition at 2 µM [1, 4]: 95.4%
- inhibition at 2 µM [1, 5]: 96.3%
- inhibition at 2 µM [1, 6]: 93.6%
- IC50 ([1]; Plasmodium falciparum): 1490 nM
- Selectivity ratio F [2]: 8.16
- inhibition at 2 µM [2, 7]: 41.1%
- inhibition at 2 µM [2, 8]: 46.9%
- inhibition at 2 µM [2, 9]: 46.3%
- inhibition at 2 µM [2, 10]: 38%
- inhibition at 2 µM [2, 11]: 33.3%
- IC50 ([2]; Plasmodium falciparum): > 10000 nM

Now from value to molecule, other results behind:

- IC50 [1]: 1220 nM
- IC50 [2]: 4420 nM
Structure (SMILES): Cl.O=S(=O)(Nc1cc2c(cc1OCCCN1CCCCC1)CCNCC2)c1ccc(-c2ccc(Cl)cc2)cc1 [TCMDC-141753]
- Tox50 (HepG2 cells): 7.17 µM
- Average inhibition male (%) ([1]; average of replicates): 98.2%
- % inhibition male (individual replicates) R1 ([1]; replicate R1): 97.5%
- % inhibition male (individual replicates) R3 ([1]; replicate R3): 95.7%
- % inhibition male (individual replicates) R4 ([1]; replicate R4): 101.6%
- Selectivity Ratio M [1]: 5.89
- Average inhibition female (%) ([2]; average of replicates): 56.2%
- % inhibition female (individual replicates) R1 ([2]; replicate R1): 37.1%
- % inhibition female (individual replicates) R3 ([2]; replicate R3): 44.2%
- % inhibition female (individual replicates) R4 ([2]; replicate R4): 65.5%
- Selectivity ratio F [2]: 1.62

- IC50 ([1]; Plasmodium falciparum): 240 nM
- IC50 ([2]; Plasmodium falciparum): 260 nM
Structure (SMILES): O=C(O)CCSSc1cccc[n+]1[O-] [TCMDC-141973]
- Tox50 (HepG2 cells): 30.9 µM
- Selectivity Ratio M [1]: 128.35
- inhibition at 2 µM [1, 3]: 97.3%
- inhibition at 2 µM [1, 4]: 98.9%
- inhibition at 2 µM [1, 5]: 96.8%
- inhibition at 2 µM ([1]; Plasmodium falciparum, replicate R3, read-out: % inhibition male (individual replicates) R3): 100%
- inhibition at 2 µM [1, 6]: 92.9%
- Selectivity ratio F [2]: 117.36
- inhibition at 2 µM [2, 7]: 42.8%
- inhibition at 2 µM [2, 8]: 28.9%
- inhibition at 2 µM [2, 9]: 62.6%
- inhibition at 2 µM [2, 10]: 43.7%
- inhibition at 2 µM [2, 11]: 35.9%

- IC50 [1]: 1150 nM
- IC50 [2]: 2250 nM
Structure (SMILES): Nc1nc(N)c2cc(NC(=O)c3ccc(Cl)c(Cl)c3)ccc2n1 [TCMDC-141982]
- Tox50 (HepG2 cells): 2.38 µM
- Average inhibition male (%) ([1]; average of replicates): 98.2%
- % inhibition male (individual replicates) R1 ([1]; replicate R1): 97.3%
- % inhibition male (individual replicates) R3 ([1]; replicate R3): 98.4%
- % inhibition male (individual replicates) R4 ([1]; replicate R4): 100.2%
- Selectivity Ratio M [1]: 2.06
- Average inhibition female (%) ([2]; average of replicates): 81.8%
- % inhibition female (individual replicates) R1 ([2]; replicate R1): 88.2%
- % inhibition female (individual replicates) R3 ([2]; replicate R3): 90.4%
- % inhibition female (individual replicates) R4 ([2]; replicate R4): 80.2%
- Selectivity ratio F [2]: 1.06
